Measured values as given in patent EP4722212A1, “NOVEL COMPOUND FOR INHIBITING PROTEIN KINASES AND PHARMACEUTICAL COMPOSITION COMPRISING SAME” (Magicbullettherapeutics Co., Ltd., priority 2023, dated 2024).

Legend:
22Rv1 = experiment: Cell line inhibition analysis (CCK-8, 72 h); format: cell-based; details: Homo sapiens; 22Rv1, 72 hours; read-out: Cell growth inhibition GI50 22Rv1
In short: (§1)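 Cells attached one day, then treated 72 h at 37 °C with nine 3-fold compound dilutions (final 0-50 µM) or DMSO. Growth read by CCK-8 absorbance at 450 nm after 2 h, medium-blank corrected, with a day-0 plate defining 0% growth; GI50 calculated.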

C4-2B = experiment: Cell line inhibition analysis (CCK-8, 72 h); format: cell-based; details: read-out: Cell growth inhibition GI50 C4-2B
In short: as §1

DLK/MAP3K12 = DLK/MAP3K12 (Homo sapiens, UniProt Q12852); experiment: Kinase panel; format: biochemical; details: DLK/MAP3K12, 1 µM; read-out: residual enzyme activity
In short: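 Each listed kinase was assayed biochemically in the presence of 1 µM compound, and the calculated value is residual enzyme activity. Identification criterion was inhibition reaching 60% or more.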

Chain of DLK/MAP3K12 (Q12852 whole entry): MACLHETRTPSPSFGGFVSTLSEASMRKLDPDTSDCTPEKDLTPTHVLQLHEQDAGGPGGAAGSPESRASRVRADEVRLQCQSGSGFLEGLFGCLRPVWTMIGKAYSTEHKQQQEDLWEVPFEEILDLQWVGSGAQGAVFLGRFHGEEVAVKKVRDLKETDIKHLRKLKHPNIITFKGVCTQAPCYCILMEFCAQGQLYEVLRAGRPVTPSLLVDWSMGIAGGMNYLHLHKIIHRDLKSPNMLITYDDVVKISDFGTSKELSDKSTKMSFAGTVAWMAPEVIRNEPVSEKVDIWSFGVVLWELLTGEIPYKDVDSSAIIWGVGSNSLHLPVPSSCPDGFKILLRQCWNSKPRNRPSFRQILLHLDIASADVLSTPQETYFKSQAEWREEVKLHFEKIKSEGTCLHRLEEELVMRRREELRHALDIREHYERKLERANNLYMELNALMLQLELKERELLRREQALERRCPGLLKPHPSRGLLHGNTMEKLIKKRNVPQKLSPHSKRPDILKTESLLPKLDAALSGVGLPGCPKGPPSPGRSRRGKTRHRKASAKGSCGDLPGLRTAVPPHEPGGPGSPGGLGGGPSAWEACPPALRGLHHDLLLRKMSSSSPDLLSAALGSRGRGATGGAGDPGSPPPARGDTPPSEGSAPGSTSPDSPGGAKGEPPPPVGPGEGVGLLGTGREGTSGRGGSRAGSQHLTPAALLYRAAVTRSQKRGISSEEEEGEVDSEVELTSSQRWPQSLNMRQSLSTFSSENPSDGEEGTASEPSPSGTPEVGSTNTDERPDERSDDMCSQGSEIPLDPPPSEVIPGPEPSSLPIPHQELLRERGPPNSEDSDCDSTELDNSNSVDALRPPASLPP

| SMILES | GI50 (22Rv1) [µM] | GI50 (C4-2B) [µM] | remaining activity at 1 µM (DLK/MAP3K12) [%] |
| --- | --- | --- | --- |
| Cc1cn(-c2cc(C(=O)Nc3ccc(C)c(N4Cc5cnc(NC6CC6)nc5C5(CC5)C4=O)c3)cc(C(F)(F)F)c2)cn1 [Compound 8, N-(3-(2'-(cyclopropylamino)-7'-oxo-5'H-spiro[cyclopropane-1,8'-pyrido[4,3-d]pyrimidine]-6'(7'H)-yl)-4-methylphenyl)-3-(4-methyl-1H-imidazol-1-yl)-5-(trifluoromethyl)benzamide] | < 1 | < 1 | – |
| Cc1ccc(Nc2ncc3c(n2)C2(CC2)C(=O)N(c2cc(NC(=O)c4cccc(C(F)(F)F)c4)ccc2C)C3)cn1 [Compound 51, N-(4-methyl-3-(2'-((6-methylpyridin-3-yl)amino)-7'-oxo-5'H-spiro[cyclopropane-1,8'-pyrido[4,3-d]pyrimidine]-6'(7'H)-yl)phenyl)-3-(trifluoromethyl)benzamide] | – | – | > 40 |
